# Experiments:
# Type in all cases: in vivo
# Conditions in all cases: evaluated after 13 days
# Setaria faberi (SETFA) [1] = test: Pre-emergence Test, Setaria faberi (SETFA)
# [2] = system: Echinochloa crus-galli (ECHCG); test: Pre-emergence Test, Echinochloa crus-galli (ECHCG)
# Zea mays (ZEAMX) [3] = test: Pre-emergence Test, Zea mays (ZEAMX)
# [4] = system: Ipomoea hederacea (IPOHE); test: Pre-emergence Test, Ipomoea hederacea (IPOHE)
# [5] = system: Amaranthus palmeri (AMAPA); test: Pre-emergence Test, Amaranthus palmeri (AMAPA)
# [6] = system: Amaranthus retoflexus (AMARE); test: Pre-emergence Test, Amaranthus retoflexus (AMARE)
# Setaria faberi (SETFA) [7] = test: Post-emergence Test, Setaria faberi (SETFA); design: key to percentage damage caused to the plant, SETFA (five-point scale): 5=81-100%, 4=61-80%, 3=41-60%, 2=21-40%, 1=0-20% damage
# In short: (§1)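 Tested at 1000 g/ha unless otherwise stated. Plants were held at 24/16 °C day/night with a 14 h light period. Percent damage was read at 13 days and reported in five bands.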
# [8] = system: Echinochloa crus-galli (ECHCG); test: Post-emergence Test, Echinochloa crus-galli (ECHCG); design: key to percentage damage caused to the plant, ECHCG (five-point scale): 5=81-100%, 4=61-80%, 3=41-60%, 2=21-40%, 1=0-20% damage
# In short: as §1
# Zea mays (ZEAMX) [9] = test: Post-emergence Test, Zea mays (ZEAMX); design: key to percentage damage caused to the plant, ZEAMX (five-point scale): 5=81-100%, 4=61-80%, 3=41-60%, 2=21-40%, 1=0-20% damage
# In short: as §1
# [10] = system: Ipomoea hederacea (IPOHE); test: Post-emergence Test, Ipomoea hederacea (IPOHE); design: key to percentage damage caused to the plant, IPOHE (five-point scale): 5=81-100%, 4=61-80%, 3=41-60%, 2=21-40%, 1=0-20% damage
# In short: as §1
# [11] = system: Amaranthus palmeri (AMAPA); test: Post-emergence Test, Amaranthus palmeri (AMAPA); design: key: 5=81-100%, 4=61-80%, 3=41-60%, 2=21-40%, 1=0-20% damage
# In short: as §1
# [12] = system: Amaranthus retoflexus (AMARE); test: Post-emergence Test, Amaranthus retoflexus (AMARE); design: key to percentage damage caused to the plant, AMARE (five-point scale): 5=81-100%, 4=61-80%, 3=41-60%, 2=21-40%, 1=0-20% damage
# In short: as §1
Structure (SMILES),"Pre-emergence Test SETFA, percentage damage caused to the plant (five-point scale) (Setaria faberi (SETFA) [1]; 250 g/Ha (*))","Pre-emergence Test SETFA, percentage damage caused to the plant (five-point scale) (Setaria faberi (SETFA) [1]; 1000 g/ha)","Pre-emergence Test ECHCG, percentage damage caused to the plant (five-point scale) ([2]; 250 g/Ha (*))","Pre-emergence Test ECHCG, percentage damage caused to the plant (five-point scale) ([2]; 1000 g/ha)","Pre-emergence Test ZEAMX, percentage damage caused to the plant (five-point scale) (Zea mays (ZEAMX) [3]; 250 g/Ha (*))","Pre-emergence Test ZEAMX, percentage damage caused to the plant (five-point scale) (Zea mays (ZEAMX) [3]; 1000 g/ha)","Pre-emergence Test IPOHE, percentage damage caused to the plant (five-point scale) ([4]; 250 g/Ha (*))","Pre-emergence Test AMAPA, percentage damage caused to the plant (five-point scale) ([5]; 250 g/Ha (*))","Pre-emergence Test AMARE, percentage damage caused to the plant (five-point scale) ([6]; 250 g/Ha (*))","percentage damage caused to the plant, SETFA (five-point scale) (Setaria faberi (SETFA) [7]; 250 g/Ha)","percentage damage caused to the plant, SETFA (five-point scale) (Setaria faberi (SETFA) [7]; 1000 g/ha)","percentage damage caused to the plant, ECHCG (five-point scale) ([8]; 250 g/Ha)","percentage damage caused to the plant, ECHCG (five-point scale) ([8]; 1000 g/ha)","percentage damage caused to the plant, ZEAMX (five-point scale) (Zea mays (ZEAMX) [9]; 250 g/Ha)","percentage damage caused to the plant, ZEAMX (five-point scale) (Zea mays (ZEAMX) [9]; 1000 g/ha)","percentage damage caused to the plant, IPOHE (five-point scale) ([10]; 250 g/Ha)","percentage damage caused to the plant, IPOHE (five-point scale) ([10]; 1000 g/ha)","percentage damage caused to the plant, AMAPA (five-point scale) ([11]; 250 g/Ha)","percentage damage caused to the plant, AMARE (five-point scale) ([12]; 250 g/Ha)","percentage damage caused to the plant, AMARE (five-point scale) ([12]; 1000 g/ha)",further results
"CCn1c(Cn2ccc(Cl)n2)cc(=O)c(C(=O)O)c1-c1ccc(C#N)c(Cl)c1 [Compound 119, 2-(3-chloro-4-cyano-phenyl)-6-[(3-chloropyrazol-1-yl)methyl]-1-ethyl-4-oxo-pyridine-3-carboxylic acid]",3 (3=41-60%),4 (4=61-80%),1 (1=0-20%),3 (3=41-60%),0,0,0,1 (1=0-20%),0,1 (1=0-20%),4 (4=61-80%),1 (1=0-20%),4 (4=61-80%),0,0,1 (1=0-20%),2 (2=21-40%),0,1 (1=0-20%),0,"Pre-emergence Test IPOHE, percentage damage caused to the plant (five-point scale) ([4]; 1000 g/ha): 0; Pre-emergence Test AMAPA, percentage damage caused to the plant (five-point scale) ([5]; 1000 g/ha): 1 (1=0-20%); Pre-emergence Test AMARE, percentage damage caused to the plant (five-point scale) ([6]; 1000 g/ha): 0"
"CCn1c(Cn2ccc(C(F)(F)F)n2)c(-c2ccc(Cl)cc2)c(=O)c(C(=O)O)c1-c1ccc(Cl)c(Cl)c1 [Compound 21, 5-(4-chlorophenyl)-2-(3,4-dichlorophenyl)-1-ethyl-4-oxo-6-[[3-(trifluoromethyl)pyrazol-1-yl]methyl]pyridine-3-carboxylic acid]",0,,0,,0,,1 (1=0-20%),0,0,,0,,0,,1 (1=0-20%),,3 (3=41-60%),,,1 (1=0-20%),"percentage damage caused to the plant, AMAPA (five-point scale) ([11]; 1000 g/ha): 2 (2=21-40%)"
"CCCOc1ccn(Cc2cc(=O)c(C(=O)O)c(-c3ccc(Cl)c(Cl)c3)n2CC)n1 [Compound 160, 2-(3,4-dichlorophenyl)-1-ethyl-4-oxo-6-[(3-propoxypyrazol-1-yl)methyl]pyridine-3-carboxylic acid]",2 (2=21-40%),5 (5=81-100%),2 (2=21-40%),5 (5=81-100%),0,3 (3=41-60%),2 (2=21-40%),0,0,2 (2=21-40%),4 (4=61-80%),2 (2=21-40%),4 (4=61-80%),1 (1=0-20%),4 (4=61-80%),3 (3=41-60%),3 (3=41-60%),0,0,1 (1=0-20%),"Pre-emergence Test IPOHE, percentage damage caused to the plant (five-point scale) ([4]; 1000 g/ha): 2 (2=21-40%); Pre-emergence Test AMAPA, percentage damage caused to the plant (five-point scale) ([5]; 1000 g/ha): 0; Pre-emergence Test AMARE, percentage damage caused to the plant (five-point scale) ([6]; 1000 g/ha): 1 (1=0-20%); percentage damage caused to the plant, AMAPA (five-point scale) ([11]; 1000 g/ha): 1 (1=0-20%)"
"CCn1c(Cn2ccc(F)n2)cc(=O)c(C(=O)O)c1-c1ccc(Cl)c(Cl)c1 [Compound 36, 2-(3,4-dichlorophenyl)-1-ethyl-6-[(3-fluoropyrazol-1-yl)methyl]-4-oxo-pyridine-3-carboxylic acid]",4 (4=61-80%),,3 (3=41-60%),,0,,0,2 (2=21-40%),1 (1=0-20%),4 (4=61-80%),,3 (3=41-60%),,2 (2=21-40%),,4 (4=61-80%),,1 (1=0-20%),2 (2=21-40%),,
"CCn1c(Cn2ccc(C(F)(F)F)n2)cc(=O)c(C(=O)OC)c1-c1ccc(Cl)cc1 [Compound 22, methyl 2-(4-chlorophenyl)-1-ethyl-4-oxo-6-[[3-(trifluoromethyl)pyrazol-1-yl]methyl]pyridine-3-carboxylate]",4 (4=61-80%),4 (4=61-80%),1 (1=0-20%),3 (3=41-60%),0,0,0,0,0,3 (3=41-60%),3 (3=41-60%),0,3 (3=41-60%),0,1 (1=0-20%),1 (1=0-20%),2 (2=21-40%),1 (1=0-20%),1 (1=0-20%),1 (1=0-20%),"Pre-emergence Test IPOHE, percentage damage caused to the plant (five-point scale) ([4]; 1000 g/ha): 0; Pre-emergence Test AMAPA, percentage damage caused to the plant (five-point scale) ([5]; 1000 g/ha): 0; Pre-emergence Test AMARE, percentage damage caused to the plant (five-point scale) ([6]; 1000 g/ha): 0; percentage damage caused to the plant, AMAPA (five-point scale) ([11]; 1000 g/ha): 1 (1=0-20%)"
"CCn1c(Cn2nc(C(F)(F)F)cc2OCCOC)cc(=O)c(C(=O)O)c1-c1ccc(Cl)c(Cl)c1 [Compound 144, 2-(3,4-dichlorophenyl)-1-ethyl-6-[[5-(2-methoxyethoxy)-3-(trifluoromethyl)pyrazol-1-yl]methyl]-4-oxo-pyridine-3-carboxylic acid]",,5 (5=81-100%),,1 (1=0-20%),,0,,,,2 (2=21-40%),3 (3=41-60%),2 (2=21-40%),3 (3=41-60%),0,3 (3=41-60%),1 (1=0-20%),2 (2=21-40%),0,1 (1=0-20%),2 (2=21-40%),"Pre-emergence Test IPOHE, percentage damage caused to the plant (five-point scale) ([4]; 1000 g/ha): 1 (1=0-20%); Pre-emergence Test AMAPA, percentage damage caused to the plant (five-point scale) ([5]; 1000 g/ha): 0; Pre-emergence Test AMARE, percentage damage caused to the plant (five-point scale) ([6]; 1000 g/ha): 0; percentage damage caused to the plant, AMAPA (five-point scale) ([11]; 1000 g/ha): 1 (1=0-20%)"
